Data as given in patent US4950792A, “Substituted p,p'-methylene-bis-anilines” (Lonza Ltd., priority 1985, dated 1990).

Tests used:
[1] = thermal stability: exotherm on heating; format: physicochemical; details: for exotherm of the product / time after which an exotherm could be determined: 350° C.
Description: Further, it was possible to establish that the compounds according to the invention are extremely temperature-stable. Thus, most of such compounds could be heated to 350° C. (comparison of MOCA around 200° C.) without the occurrence of an exotherm. The maximum possible working temperature with the new compounds consequently is substantially higher than with the usual chain-lengthening agents (comparison with MOCA, 140° C.). If this temperature is not used, at least the safe, decomposition-free working temperature range is substantially greater than the prior art compounds.

[2] = prior art; cited from earlier work

Structure (SMILES): CCc1cc(Cc2cc(CC)c(N)c(C)c2Cl)c(Cl)c(C)c1N [Amine VI, 4,4'-Methylene-bis-(3-chloro-2-methyl-6-ethylaniline)]
- exotherm of the product ([1]; over 8 hours): No exotherm

Structure (SMILES): Nc1ccc(Cc2ccc(N)c(Cl)c2)cc1Cl [Amine I, 4,4'-methylene-bis(2-chloroaniline), reference compound]
- temperature to which compound could be heated without the occurrence of an exotherm ([1]; comparison with MOCA): around 200 °C
- carcinogenicity [2]: carcinogenicity

Structure (SMILES): CC(C)c1cc(Cc2cc(C(C)C)c(N)c(C(C)C)c2Cl)c(Cl)c(C(C)C)c1N [Example 4, 4,4'-Methylene-bis(3-chloro-2,6-diisopropylaniline)]
- time after which an exotherm could be determined [1]: 3 h

Structure (SMILES): CCc1cc(Cc2cc(CC)c(N)c(CC)c2Cl)c(Cl)c(CC)c1N [Amine V, 4,4'-Methylene-bis-(3-chloro-2,6-diethylaniline)]
- exotherm of the product ([1]; over 8 hours): No exotherm

Structure (SMILES): CCC(C)c1cc(Cc2cc(C(C)CC)c(N)c(C(C)CC)c2Cl)c(Cl)c(C(C)CC)c1N (stereo not drawn) [Amine IX, 4,4'-Methylene-bis-(3-chloro-2,6-di-sec-butylaniline)]
- exotherm of the product ([1]; over 8 hours): No exotherm

Structure (SMILES): CCC(C)c1cc(Cc2cc(C(C)CC)c(N)c(C)c2Cl)c(Cl)c(C)c1N (stereo not drawn) [Example 9, 4,4'-Methylene-bis(3-chloro-2-methyl-6-sec-butylaniline)]
- time after which an exotherm could be determined [1]: 2 h

Structure (SMILES): CCc1c(N)c(C)cc(Cc2cc(C)c(N)c(CC)c2Cl)c1Cl [Example 2, 4,4'-Methylene-bis-(5-chloro-2-methyl-6-ethylaniline)]
- exotherm of the product ([1]; over 8 hours): No exotherm

Structure (SMILES): Cc1cc(Cc2cc(C)c(N)c(C(C)C)c2Cl)c(Cl)c(C(C)C)c1N [Amine VII, 4,4'-Methylene-bis-(5-chloro-2-methyl-6-isopropylaniline)]
- temperature up to which no exotherm could be determined [1]: > 320 °C

Structure (SMILES): CCC(C)c1c(N)c(C)cc(Cc2cc(C)c(N)c(C(C)CC)c2Cl)c1Cl (stereo not drawn) [Amine X, 4,4'-Methylene-bis(5-chloro-2-methyl-6-sec-butylaniline)]
- temperature up to which no exotherm could be determined [1]: > 340 °C

Structure (SMILES): Cc1c(N)c(C(C)C)cc(Cc2cc(C(C)C)c(N)c(C)c2Cl)c1Cl [Amine VIII, 4,4'-Methylene-bis(3-chloro-2-methyl-6-isopropylaniline)]
- exotherm of the product ([1]; over 8 hours): No exotherm

Structure (SMILES): CCc1c(N)c(Cl)cc(Cc2cc(Cl)c(N)c(CC)c2Cl)c1Cl [Amine IV, 4,4'-Methylene-bis(2,5-dichloro-6-ethylaniline)]
- exotherm of the product ([1]; time not stated): An exotherm
